These compounds were tested on rabbit skeletal myofibrils (approximately 90% fast fibers) (assay: Activation of fast skeletal myofibrils (PUMA coupled-enzyme ATPase assay at pCa25)). Details: concentration at which the compound increased the enzymatic activity by 40%; calcium at pCa25; PM12 buffer pH 6.8.
Type: biochemical
How it was run: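 In pH 6.8 PM12 buffer (12 mM Pipes, 2 mM MgCl2, 1 mM DTT), ADP from myosin regenerated via pyruvate kinase/lactate dehydrogenase, with absorbance change at 340 nm from NADH oxidation as read-out. Calcium set at pCa25; Triton-washed rabbit skeletal myofibrils (about 90% fast fibres) used.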

| SMILES | Mean AC1.4 |
| --- | --- |
| CC(C)(Nc1ncc(-c2ncc(CNC(=O)[C@@H]3CCCN3)s2)cn1)c1ncccc1F [((2S)pyrrolidin-2-yl)-N-{[2-(2-{[1-(3-fluoro(2-pyridyl))-isopropyl]amino}pyrimidin-5-yl)(1,3-thiazol-5-yl)]methyl}carboxamide] | C (C=10-20 uM) |
| CC(C)(Nc1ncc(-c2ncc(CNC(=O)C3(N)CC3)s2)cn1)c1ncccc1F [(aminocyclopropyl)-N-{[2-(2-{[1-(3-fluoro(2-pyridyl))-isopropyl]amino}pyrimidin-5-yl)(1,3-thiazol-5-yl)]methyl)carboxamide] | D (D=>20 uM) |
| CC(C)(C)OC(=O)NCc1cnc(-c2cnc(NCC3(c4ncccc4Cl)CCC3)nc2)s1 [(tert-butoxy)-N-({2-[2-({[(3-chloro(2-pyridyl))cyclobutyl]methyl}amino)pyrimidin-5-yl](1,3-thiazol-5-yl)}methyl)carboxamide] | A (A=<1 uM) |
| CC(C)(C)OC(=O)NCc1cnc(-c2cnc(NCC3(c4ncccc4F)CCC3)nc2)s1 [(tert-butoxy)-N-({2-[2-({[(3-fluoro(2-pyridyl))cyclobutyl]methyl}amino)pyrimidin-5-yl](1,3-thiazol-5-yl)}methyl)carboxamide] | B (B=1-10 uM) |
| CC(C)(C)OC(=O)NCc1cnc(-c2cnc(NCC3(c4ccccn4)CCC3)nc2)s1 [(tert-butoxy)-N-{[2-(2-{[(2-pyridylcyclobutyl)methyl]amino}pyrimidin-5-yl)(1,3-thiazol-5-yl)]methyl}carboxamide] | B (B=1-10 uM) |
| CS(=O)(=O)NCc1cnc(-c2cnc(NCC3(c4ncccc4F)CCC3)nc2)s1 [({2-[2-({[(3-fluoro(2-pyridyl))cyclobutyl]methyl}amino)pyrimidin-5-yl](1,3-thiazol-5-yl)}methyl)(methylsulfonyl)amine] | B (B=1-10 uM) |
| CC(=O)N1CC(NC(=O)c2ccc(F)c(-c3cnc(NC[C@]4(c5ncccc5F)C[C@H](F)C4)nc3)c2)C1 [N-(1-acetylazetidin-3-yl) {4-fluoro-3-[2-({[3-fluoro-1-(3-fluoro(2-pyridyl))cyclobutyl]methyl}aminopyrimidin-5-yl]phenyl}carboxamide] | B (B=1-10 uM) |
| CC(=O)N1CC(NC(=O)c2cccc(-c3cnc(NC[C@]4(c5ncccc5F)C[C@H](F)C4)nc3)c2)C1 [N-(1-acetylazetidin-3-yl){3-[2-({[3-fluoro-1-(3-fluoro(2-pyridyl))cyclobutyl]methyl}amino)pyrimidin-5-yl]phenyl}carboxamide] | B (B=1-10 uM) |
| CC(C)(Nc1ncc(-n2cc(C(=O)NCCC(N)=O)cn2)cn1)c1ncccc1Cl [N-(2-carbamoylethyl)[1-(2-{[1-(3-chloro)(2-pyridyl))-isopropyl]amino}pyrimidin-5-yl)pyrazol-4-yl]carboxamide] | D (D=>20 uM) |
| CC(=O)NCCNC(=O)c1cnc(NCC2(c3ncccc3F)CCC2)nc1 [N-(2-{[2-({[(3-fluoro-2-pyridyl)cyclobutyl]methyl}amino)pyrimidin-5-yl]carbonylamino}ethyl)acetamide] | D (D=>20 uM) |
| CC(C)(C)NC(=O)c1cc(-c2cnc(NC(C)(C)c3ncccc3Cl)nc2)cnn1 [N-(tert-butyl)[5-(2-{[1-(3-chloro(2-pyridyl))-isapropyl]amino}pyrimidin-5-yl)pyridazin-3-yl]carboxamide] | D (D=>20 uM) |
| CC(=O)NCc1cnc(-c2cnc(NCC3(c4ncccc4Cl)CCC3)nc2)s1 [N-({2-[2-({[(3-chloro-2-pyridyl)cyclobutyl]methyl}amino)pyrimidin-5-yl]-1,3-thiazol-5-yl}methyl)acetamide] | A (A=<1 uM) |
| CC(=O)NCc1cnc(-c2cnc(NCC3(c4ncccc4F)CCC3)nc2)s1 [N-({2-[2-({[(3-fluoro-2-pyridyl)cyclobutyl]methyl}amino)pyrimidin-5-yl]-1,3-thiazol-5-yl}methyl)acetamide] | B (B=1-10 uM) |
| CC(C)(CNC(=O)c1cnc(NCC(C)(C)c2ccc(F)cc2)nc1)c1ccc(F)cc1 [N-[2-(4-fluorophenyl)-2-methylpropyl](2-{[2-(4-fluorophenyl)-2-methylpropyl]amino}pyrimidin-5-yl)carboxamide] | D (D=>20 uM) |
| O=C(Nc1cnc(NCC2(c3ncccc3F)CCC2)nc1)c1nccs1 [N-[2-(([(3-fluoro(2-pyridyl))cyclobutyl]methyl}amino)pyrimidin-5-yl]-1,3-thiazol-2-ylcarboxamide] | D (D=>20 uM) |
| CC(=O)Nc1n[nH]c2ccc(-c3cnc(NC(C)(C)c4ncccc4Cl)nc3)cc12 [N-[5-(2-{[1-(3-chloro(2-pyridyl))-isopropyl]amina}pyrimidin-5-yl)-1H-indazol-3-yl]acetamide] | B (B=1-10 uM) |
| O=C(NC1(c2ccc(F)cc2)CCC1)c1cnc(NC2(c3ccc(F)cc3)CCC2)nc1C(F)(F)F [N-[(4-fluorophenyl)cyclobutyl](2-{[(4-fluorophenyl)cyclobutyl]amino}-4-(trifluoromethyl)pyrimidin-5-yl)carboxamide] | D (D=>20 uM) |
| CCNC(=O)c1cnc(NCC2(c3ncccc3F)CCC2)nc1 [N-ethyl[2-({[(3-fluoro(2-pyridyl))cyclobutyl]methyl}amino)pyrimidin-5-yl] carboxamide] | D (D=>20 uM) |
| CC(=O)Nc1ccccc1-c1cnc(NC[C@]2(c3ncccc3F)C[C@H](F)C2)nc1 [N-{2-[2-({[3-fluoro-1-(3-fluoro(2-pyridyl))cyclobutyl]methyl}amino)pyrimidin-5-yl]phenyl}acetamide] | D (D=>20 uM) |

| SMILES | Mean AC1.4 |
| --- | --- |
| CC(C)(C)OC(=O)NCCNC(=O)c1cnc(NCC2(c3ncccc3F)CCC2)nc1 [N-{2-[(tert-butoxy)carbonylamino]ethyl}[2-({[(3-fluoro(2-pyridyl))cyclobutyl]methyl}amino)pyrimidin-5-yl]carboxamide] | D (D=>20 uM) |
| CC(=O)NCc1cnn(-c2cnc(NC(C)(C)c3ncccc3Cl)nc2)c1 [N-{[1-(2-{[1-(3-chloro(2-pyridyl))-isopropyl]amino}pyrimidin-5-yl)pyrazol-4-yl)]methyl}acetamide] | D (D=>20 uM) |
| CC(=O)NCc1cnc(-c2cnc(NC(C)(C)c3ncccc3Cl)nc2)s1 [N-{[2-(2-{[1-(3-chloro(2-pyridyl))-isopropyl]amino)}pyrimidin-5-yl)-1,3-thiazol-5-yl]methyl]acetamide] | C (C=10-20 uM) |
| CC(C)(Nc1ncc(-c2ncc(CNC(=O)c3c[nH]c(O)n3)s2)cn1)c1ncccc1Cl [N-{[2-(2-{[1-(3-chloro(2-pyridyl))-isopropyl]amino}pyrimidin-5-yl)(1,3-thazol-5-yl)]methyl}(2-hydroxyimidazol-4-yl)carboxamide] | B (B=1-10 uM) |
| CC(C)(O)C(=O)NCc1cnc(-c2cnc(NC(C)(C)c3ncccc3Cl)nc2)s1 [N-{[2-(2-{[1-(3-chloro(2-pyridyl))-isopropyl}amino}pyrimidin-5-yl)(1,3-thiazol-5-yl)]methyl]-2-hydroxy-2-methylpropanamide] | C (C=10-20 uM) |
| CC(C)(Nc1ncc(-c2ncc(CNC(=O)c3cnc[nH]3)s2)cn1)c1ncccc1F [N-{[2-(2-{[1-(3-fluoro(2-pyridyl))-isopropyl]amino}pyrimidin-5-yl)(1,3-thiazol-5-yl)]methyl}imidazol-5-ylcarboxamide] | D (D=>20 uM) |
| CC(=O)NCc1cnc(-c2cnc(NC(C)(C)c3ncccc3F)nc2)s1 [N-{[2-(2-{[1-(3-fluoro(2-pyridyl))-isopropyl]amino}pyrimidin-5-yl)-1,3-thiazol-5-yl]methyl}acetamide] | D (D=>20 uM) |
| CC(C)(Nc1ncc(-c2ncc(CNC(=O)c3cnc(O)[nH]3)s2)cn1)c1ncccc1F [N-{[2-(2-{[1-(3-fluoro(2-pyridyl))-isopropyl}amino}pyrimidin-5-yl)(1,3-thiazol-5-yl)]methyl}(2-hydroxyimidazol-5-yl)carboxamide] | C (C=10-20 uM) |
| CC(=O)NCc1cccc(-c2cnc(NC(C)(C)c3ncccc3F)nc2)c1 [N-{[3-(2-{[1-(3-fluoro(2-pyridyl))-isopropyl]amino}pyrimidin-5-yl)phenyl]methyl}acetamide] | C (C=10-20 uM) |
| CC(=O)NCc1ccc(-c2cnc(NC(C)(C)c3ncccc3F)nc2)cc1 [N-{[4-(2-{[1-(3-fluoro(2-pyridyl))-isopropyl}amino}pyrimidin-5-yl)phenyl]methyl}acetamide] | D (D=>20 uM) |
| CC(C)(Nc1ncc(-n2cc(C(=O)NCCO)cn2)cn1)c1ncccc1Cl [[1-(2-{[1-(3-chloro(2-pyridyl))-isopropyl]amino}pyrimidin-5-yl)pyrazol-4-yl]-N-(2-hydroxyethyl)carboxamide] | D (D=>20 uM) |
| CC(C)(Nc1nccc(-c2nccs2)n1)c1ncccc1Cl [[1-(3-chloro(2-pyridyl))-isopropyl](4-(1,3-thiazol-2-yl)pyrimidin-2-yl)amine] | D (D=>20 uM) |
| CC(C)(Nc1ncc(-c2ncno2)cn1)c1ncccc1Cl [[1-(3-chloro(2-pyridyl))-isopropyl](5-(1,2,4-oxadiazol-5-yl)pyrimidin-2-yl)amine] | D (D=>20 uM) |
| CC(C)(Nc1ncc(-c2nccs2)cn1)c1ncccc1Cl [[1-(3-chloro(2-pyridyl))-isopropyl](5-(1,3-thiazol-2-yl)pyrimidin-2-yl)amine] | B (B=1-10 uM) |
| CC(C)(Nc1ncc(-c2cn[nH]c2)cn1)c1ncccc1Cl [[1-(3-chloro(2-pyridyl))-isopropyl](5-pyrazol-4-ylpyrimidin-2-yl)amine] | B (B=1-10 uM) |
| CC(C)(Nc1ncc(-c2cnc3cc[nH]c3c2)cn1)c1ncccc1Cl [[1-(3-chloro(2-pyridyl))-isopropyl](5-pyrrolo[3,2-b]pyridin-6-ylpyrimidin-2-yl)amine] | A (A=<1 uM) |
| CC(C)(Nc1ncccn1)c1ncccc1Cl [[1-(3-chloro(2-pyridyl))-isopropyl]pyrimidin-2-ylamine] | D (D=>20 uM) |
| CN1CCc2nc(NCC(C)(C)c3ccc(F)cc3)ncc2C1 [[2-(4-fluorophenyl)-2-methylpropyl](6-methyl (5,6,7,8-tetrahydropyridino [4,3-d]pyrimidin-2-yl))amine] | D (D=>20 uM) |

Source: US11369565B2, “Amino-pyrimidine skeletal muscle modulators” (Cytokinetics, Inc., priority 2010, dated 2022)
